According to patent US9826761B2, “Compositions and methods for mitigating dietary sulfur in animals” (SarTec Corporation, priority 2008, dated 2017):

Assay: Titration of approx. 200 mM sulfide in fresh rumen fluid with 1 M metal chloride, silver/sulfide electrode
Design: species or system Holstein cows
Settings: for mVolts (Negative Value): ~200 mM sulfide, fresh rumen fluid
Method: Fresh undiluted rumen fluid was obtained from rumen fistulated Holstein cows. 1.5 ml of a saturated solution of Na2S in water (approximately 2.7 M) was added to 18.5 ml of the rumen fluid. Sodium sulfide solutions were quantified by titration using a silver/sulfide electrode (Orion, Ion Plus Silver/Sulfide 9616BNWP) and a commercial lead standard (0.1 M Pb^2+, Orion 948206). The final concentration for sulfide ion in the rumen fluid was approximately 200 mM. This solution was then titrated with a 1 M solution of MnCl2 in water. The progress of the reaction was followed using the silver/sulfide electrode.
Fresh undiluted rumen fluid was obtained from rumen fistulated Holstein cows. 1.5 ml of saturated solution of Na2S in water (approximately 2.7 M) was added to 18.5 ml of the rumen fluid. The final concentration of sulfide ion in the rumen fluid was approximately 200 mM. This solution was then titrated with a 1 M solution of FeCl2 in water. The progress of the reaction was followed using the same silver/sulfide electrode set-up described above (Orion, Ion Plus Silver/Sulfide 9616BNWP).
Data taken from Examples 1 and 2 above were plotted together in order to gauge the relative efficacy of MnCl2 versus FeCl2 in removing sulfide ion from rumen fluid.

[Cl][Fe][Cl] [FeCl2, iron (II) chloride]
concentration of sulfide ion within the rumen fluid (addition of 1 M titrant to ~200 mM sulfide in fresh rumen fluid): effective to reduce the concentration of sulfide ion
total sulfide ion concentrations in the rumen fluid, FeCl2 versus MnCl2 (data of Examples 1 and 2 plotted together (FIG. 3)): lower total sulfide ion concentrations
mVolts (Negative Value) (titrant volume 0.0 of 1M FeCl2): 937.5 mVolts
mVolts (Negative Value) (titrant volume 0.1 of 1M FeCl2): 937.5 mVolts
mVolts (Negative Value) (titrant volume 0.4 of 1M FeCl2): 935.1 mVolts
mVolts (Negative Value) (titrant volume 0.6 of 1M FeCl2): 906.2 mVolts
mVolts (Negative Value) (titrant volume 0.8 of 1M FeCl2): 926.7 mVolts
mVolts (Negative Value) (titrant volume 1.0 of 1M FeCl2): 916.9 mVolts
mVolts (Negative Value) (titrant volume 1.3 of 1M FeCl2): 905.8 mVolts
mVolts (Negative Value) (titrant volume 1.5 of 1M FeCl2): 886.6 mVolts
mVolts (Negative Value) (titrant volume 1.7 of 1M FeCl2): 869.4 mVolts
mVolts (Negative Value) (titrant volume 1.9 of 1M FeCl2): 849.4 mVolts
mVolts (Negative Value) (titrant volume 2.1 of 1M FeCl2): 833.9 mVolts
mVolts (Negative Value) (titrant volume 2.4 of 1M FeCl2): 817.3 mVolts
mVolts (Negative Value) (titrant volume 2.6 of 1M FeCl2): 816.8 mVolts
mVolts (Negative Value) (titrant volume 2.8 of 1M FeCl2): 767.2 mVolts
mVolts (Negative Value) (titrant volume 3.0 of 1M FeCl2): 735.5 mVolts
mVolts (Negative Value) (titrant volume 3.5 of 1M FeCl2): 634.0 mVolts
mVolts (Negative Value) (titrant volume 3.7 of 1M FeCl2): 622.8 mVolts
mVolts (Negative Value) (titrant volume 3.9 of 1M FeCl2): 616.3 mVolts
mVolts (Negative Value) (titrant volume 4.1 of 1M FeCl2): 610.8 mVolts
mVolts (Negative Value) (titrant volume 4.3 of 1M FeCl2): 607.2 mVolts
mVolts (Negative Value) (titrant volume 4.5 of 1M FeCl2): 603.3 mVolts
mVolts (Negative Value) (titrant volume 4.8 of 1M FeCl2): 600.0 mVolts
mVolts (Negative Value) (titrant volume 5.0 of 1M FeCl2): 595.7 mVolts
mVolts (Negative Value) (titrant volume 5.5 of 1M FeCl2): 590.0 mVolts
mVolts (Negative Value) (titrant volume 6.0 of 1M FeCl2): 586.5 mVolts
